Results published in EP2338890A1, “4,7-Diazaindole derivatives and their use as fungicides” (Bayer CropScience AG, priority 2009, dated 2011).
Where two headings read alike, the source gives them in different places.

Experiments:
[1] = test system: Fusarium proliferatum; assay: microbe, parasite or virus in culture; type: cell-based; conditions: 120 h, read-out: inhibition of Fumonisin FB1 production
[2] = test system: Fusarium graminearum; assay: microbe, parasite or virus in culture; type: cell-based
[3] = logP at pH 3.5, given with the characterisation data; type: physicochemical; conditions: pH3.5
[4] = test system: Pyrenophora teres; assay: Pyrenophora test (barley) / preventive; type: in vivo; conditions: 500ppm of active ingredient, evaluated 7-9 days after the inoculation
Method: (§1) To produce a suitable preparation of active compound, 1 part by weight of active compound is mixed with the stated amounts of solvent and emulsifier, and the concentrate is diluted with water to the desired concentration.
To test for preventive activity, young plants are sprayed with the preparation of active compound at the stated rate of application. One day after this treatment, the plants are inoculated with an aqueous spore suspension of Pyrenophora teres. The plants remain for 48 hours in an incubation cabinet at 22°C and a relative atmospheric humidity of 100%. Then the plants are placed in a greenhouse at a temperature of approximately 20°C and a relative atmospheric humidity of approximately 80%.
The test is evaluated 7-9 days after the inoculation. 0% means an efficacy which corresponds to that of the control while an efficacy of 100% means that no disease is observed.

[5] = test system: Alternaria solani; assay: Alternaria test (tomato) / preventive; type: in vivo; conditions: 500ppm of active ingredient, evaluated 7 days after the inoculation
Method: as §1
To test for preventive activity, young plants are sprayed with the preparation of active compound at the stated rate of application. One day after this treatment, the plants are inoculated with an aqueous spore suspension of Alternaria solani. The plants remain for one day in an incubation cabinet at approximately 22°C and a relative atmospheric humidity of 100%. Then the plants are placed in an incubation cabinet at approximately 20°C and a relative atmospheric humidity of 96%.
The test is evaluated 7 days after the inoculation. 0% means an efficacy which corresponds to that of the control while an efficacy of 100% means that no disease is observed.

[6] = test system: Venturia inaequalis; assay: Venturia test (apples) / protective; type: in vivo; conditions: 100ppm of active ingredient, evaluated 10 days after the inoculation
Method: as §1
To test for protective activity, young plants are sprayed with the preparation of active compound at the stated rate of application. After the spray coating has dried on, the plants are inoculated with an aqueous conidia suspension of the causal agent of apple scab (Venturia inaequalis) and then remain for 1 day in an incubation cabinet at approximately 20°C and a relative atmospheric humidity of 100 %.
The plants are then placed in a greenhouse at approximately 21°C and a relative atmospheric humidity of approximately 90 %.
The test is evaluated 10 days after the inoculation. 0% means an efficacy which corresponds to that of the control, while an efficacy of 100% means that no disease is observed.

[7] = test system: Botrytis cinerea; assay: Botrytis test (beans) / protective; type: in vivo; conditions: 250ppm of active ingredient, lesion size 2 days after the inoculation
Method: as §1
To test for protective activity, young plants are sprayed with the preparation of active compound. After the spray coating has dried on, 2 small pieces of agar covered with growth of Botrytis cinerea are placed on each leaf. The inoculated plants are placed in a darkened chamber at 20°C and a relative atmospheric humidity of 100%.
2 days after the inoculation, the size of the lesions on the leaves is evaluated. 0% means an efficacy which corresponds to that of the control, while an efficacy of 100% means that no disease is observed.

[8] = test system: Fusarium graminearum; type: in vivo; conditions: barley, preventive, 1000ppm of active ingredient, evaluated 5 days after the inoculation

Structure (SMILES)	inhibition at 50 µM [1] [%]	inhibition at 50 µM ([2]; 72 h, read-out: Growth inhibition of Fusarium graminearum) [%]	inhibition at 50 µM ([2]; 168 h, read-out: inhibition of DON/AcDON) [%]	logD [3]	efficacy [4] [%]	efficacy [5] [%]	efficacy [6] [%]	efficacy [7] [%]	efficacy [8] [%]
Fc1ccc(-c2c(-c3ccncc3)[nH]c3nccnc23)cc1 [Compound 1, 7-(4-fluorophenyl)-6-(pyridin-4-yl)-5H-Pyrrolo[2,3-b]pyrazine]	> 80	> 80	> 80	1.33	≥ 70	≥ 70	–	–	–
C#CCn1c(-c2ccncc2)c(-c2ccc(F)cc2)c2nccnc21 [Compound 2, 7-(4-fluorophenyl)-5-(prop-2-ylyl)-6-(pyridin-4-yl)-5H-pyrrolo[2,3-b]pyrazine]	> 80	–	–	2.22	≥ 70	≥ 70	≥ 70	≥ 70	≥ 70
